Assay results reported in patent US20190328891A1, “MEDICAL PREPARATION WITH A CARRIER BASED ON HYALURONAN AND/OR DERIVATIVES THEREOF, METHOD OF PREPARATION AND USE THEREOF” (CONTIPRO A.S., priority 2016, published 2019).
Square brackets hold non-standard residues; d marks the D form. Nle = CCCC[C@H](N)C(=O)O

Key:
[1] = test system: Primary human fibroblasts (NHDF); experiment: In vitro cell adhesion on the fibre comprising RGD motif; format: cell-based; details: fibre of native HYA with bonded peptide; DiI stained NHDF, 10^5 cells; fluorescent microscope; monitored for 7 days of cultivation (FIG. 6)
Procedure: The fibre of native HYA comprising RGD motif, prepared according to the procedure described in Example 14, and control fibres were cut into 1 cm pieces and transferred onto a non-adhesive panel with 24 wells. Primary human fibroblasts (NHDF) were pre-marked with the fluorescent dye DiI (Exmax/Emmax 549/565) and inoculated, in the amount of 10^5 cells, into the wells filled with the tested samples. Then the panel was shaken by a shaker (5 hrs/160 rpm) to keep the cells in suspension, under cultivation conditions (37° C., 5% CO2). After 24 h of cultivation the fibres were transferred into a well with fresh cultivation medium. Then the cells were observed and detected by fluorescent microscope Nikon Ti-Eclipse with the use of TRITC filter (Exmax/Emmax, 549/565). The fibroblasts proliferation was monitored for 7 days of cultivation.

[2] = test system: injured skin; details: rabbits, alginate bandage containing the peptide; in comparison with Ser-Ile-Lys-Val-Ala-Val and Val-Pro-Val-Ala-Pro-Gly anchored on alginate bandage; cited from earlier work

Substance	adhesion and proliferation of human dermal fibroblasts on the fibre [1]	epithelization [2]	volume of regenerated tissue [2]
H-Ahx-Ahx-Arg-Gly-Asp-Nle-O-HYA [H-Ahx-Ahx-Arg-Gly-Asp-Nle-OH]	did not support the cell adhesion	–	–
H-Arg-Gly-Asp-Gly-Gly-Gly-Nle-O-HYA (H-RGDGGG[Nle]-{O‑hyaluronan}) [H-Arg-Gly-Asp-Gly-Gly-Gly-Nle-OH, RGD peptide linked to native hyaluronan fibre via triglycine linker]	did not support the cell adhesion	–	–
H-Gly-Gly-Gly-Arg-Gly-Asp-Nle-O-HYA (H-GGGRGD[Nle]-{O‑hyaluronan}) [H-Gly-Gly-Gly-Arg-Gly-Asp-Nle-OH, peptide with triglycine and RGD anchored to native hyaluronan fibre]	did not support the cell adhesion	–	–
Ser-Ile-Arg-Val-X-Val-X-Pro-Gly (where X=Ala or Gly)	–	significantly higher	larger
